# “Also recorded” adds a separate entry of the source. Non-standard residues stand in square brackets, D forms with d. Ala(7-MeO-coumarin-4-yl) = COc1ccc2c(C[C@H](N)C(=O)O)cc(=O)oc2c1
# What was measured:
# HepG2 whole cell lysate = details: human, 37 °C, up to 24 hours
# [1] = HepG2 whole cell lysate in CL assay buffer; details: human, 37 °C, up to 30 minutes (R1A); 24 hours (RS1A)
# cathepsin B (Cts B) = details: human, 27 °C, up to 100 min
substance,measurement,setting,value
μHLFRAμ (H-[Ala(7-MeO-coumarin-4-yl)]HLFRA[Ala(7-MeO-coumarin-4-yl)]-OH; SMILES COc1ccc2c(C[C@H](NC(=O)[C@H](C)NC(=O)[C@H](CCCNC(=N)N)NC(=O)[C@H](Cc3ccccc3)NC(=O)[C@H](CC(C)C)NC(=O)[C@H](Cc3c[nH]cn3)NC(=O)[C@@H](N)Cc3cc(=O)oc4cc(OC)ccc34)C(=O)O)cc(=O)oc2c1),fragment found,HepG2 whole cell lysate,"μHLFR, 5 mins; also recorded: Aμ, 5 mins"
same,fragment found,[1],"µHLFR; Aµ, 5 mins"
same,cleaved bond,cathepsin B (Cts B),R-A

# Reference: article PMC8901119 (Chemical Science, 2021)
